Assay [1] has as its system SK-BR-3 cells. Kind of assay: MTT proliferation assay. It counts as cell-based, human. Conditions: 20 nM, 4 days, positive control. (Tetrazolium dyes change colour on reduction, which living cells bring about.)
Description: MTT assay is a non-radioactive assay based on the cleavage of the soluble yellow tetrazolium salt MTT (3-[4,5-Dimethylthiazol-2-yl]-2,5-diphenyltetrazolium bromide; Thiazolyl Blue) by mitochondrial dehydrogenases of viable cells. […] The absorption signal is a direct measure of viable cells in the culture.
Briefly, SK-BR-3 cells were grown for 2 days in 96-well flat bottom plates. […] Supernatant was completely removed and MTT was added. Cells were incubated for 2 hours with MTT at 37° C. in a humidified CO2 incubator. The supernatant was removed and cells were lysed using HCl and 2-propanol containing lysis buffer for 1 h at room temperature in the dark. Absorption at 570 nm/630 nm was measured in a plate reader Infinite F200 (Tecan Austria GmbH).
The nature of assay [2]: Prevention of infusion related reactions by pre-medication. It counts as in vivo, human. Conditions: pretreatment with paracetamol 1000 mg evening before and 1 h before, optionally methylprednisolone 125 mg 30 min before. On the procedure: Without the use of steroids, IRRs occurred in all but one patient, at least once (grade 1 to 3). Therefore, it is recommended to use a pre-medication comprising and preferably consisting of steroids and paracetamol and to restrict the respective pre-medication to the first infusion and the single next infusion following an IRR. Preferably, paracetamol is given on the evening before and one hour before the infusion with the reduced […] anti-HER2 antibody. Steroids (for example 125 mg methylprednisolone) preferably will be administered 30 minutes before the infusion to the patient.

The test system of assay [3] is incurable, locally advanced, recurrent or metastatic solid tumors. Conditions: i.v. every 3 weeks, cited from earlier work.

The text below walks through data of patent publication US20150166664A1, “NOVEL THERAPEUTIC TREATMENTS WITH ANTI-HER2 ANTIBODIES HAVING A LOW FUCOSYLATION” (Glycotope GmbH, priority 2012, published 2015).

Turning to `CC(=O)O[C@H]1C(=O)[C@@]2(C)[C@H]([C@H](OC(=O)c3ccccc3)[C@]3(O)C[C@H](OC(=O)[C@H](O)[C@@H](NC(=O)c4ccccc4)c4ccccc4)C(C)=C1C3(C)C)[C@]1(OC(C)=O)CO[C@@H]1C[C@@H]2O` [Taxol, paclitaxel], the “proliferation compared to the medium control” value in assay [1] was determined as 6%.

On to `CC(=O)Nc1ccc(O)cc1` [paracetamol, N-(4-hydroxyphenyl)acetamide], for which the “patients who did not show any IRR upon Fuc− trastuzumab infusion” value in assay [2] is about 50%.

Take “pertuzumab: anti-HER2 antibody, HER dimerisation inhibitor”: the confirmed partial responses in assay [3] is listed as 2 Patients. For the same compound, the tumor regression in assay [3] (patients evaluable for response) is listed as 3 of 20.
